Experimental findings from patent publication US20240116985A1, “STAPLED PEPTIDES AND METHODS THEREOF” (priority 2020, published 2024) are described below.

For data set [1], the target named is T1, full-length beta-Catenin (Uniprot ID P35222) (Homo sapiens, UniProt P35222).
T1 construct: 10 nM full-length beta-Catenin (Uniprot ID P35222)
T1 sequence (P35222 1-781): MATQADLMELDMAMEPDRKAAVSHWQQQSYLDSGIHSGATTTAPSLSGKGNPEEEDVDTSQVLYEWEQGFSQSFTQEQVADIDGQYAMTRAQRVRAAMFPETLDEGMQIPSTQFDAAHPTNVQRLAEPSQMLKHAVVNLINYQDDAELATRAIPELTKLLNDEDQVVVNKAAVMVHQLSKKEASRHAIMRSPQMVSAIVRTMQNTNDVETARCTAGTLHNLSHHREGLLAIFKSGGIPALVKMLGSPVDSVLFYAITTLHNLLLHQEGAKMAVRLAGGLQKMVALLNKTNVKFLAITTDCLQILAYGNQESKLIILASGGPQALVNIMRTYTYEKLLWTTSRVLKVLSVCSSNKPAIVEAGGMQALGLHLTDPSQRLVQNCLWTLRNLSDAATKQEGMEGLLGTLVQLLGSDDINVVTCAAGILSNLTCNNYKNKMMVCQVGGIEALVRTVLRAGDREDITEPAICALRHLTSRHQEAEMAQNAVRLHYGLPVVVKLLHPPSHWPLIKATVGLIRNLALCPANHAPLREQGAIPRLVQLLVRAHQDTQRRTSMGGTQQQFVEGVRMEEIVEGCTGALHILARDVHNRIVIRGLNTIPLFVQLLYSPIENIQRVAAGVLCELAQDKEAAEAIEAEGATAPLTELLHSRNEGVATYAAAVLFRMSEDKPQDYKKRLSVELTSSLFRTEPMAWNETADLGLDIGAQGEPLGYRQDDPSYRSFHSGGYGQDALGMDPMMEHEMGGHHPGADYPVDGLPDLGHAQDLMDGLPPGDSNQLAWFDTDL
The experiment in a line: Fluorescence polarization IC50 (beta-catenin / 5FAM-TCF4 10-53 competition). The data set is classed as binding. The note with it: read-out: beta-Catenin FP IC50. In general terms: In fluorescence polarisation assays a small probe gives low polarisation when free and higher when bound to something large.

The nature of another data set: CHI Log D procedure. The data set is classed as physicochemical.
Another data set is described as follows: Solubility in PBS. It counts as physicochemical. The procedure, abridged: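 Read-out is the HPLC peak area of the supernatant from ultracentrifuged PBS solution, scaled against a 50 μM peptide DMSO injection; value reported as [(PBS area)/(DMSO area)]*50 uM.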
Data set [2] has as its target T2, beta-catenin/TCF4 engagement (Homo sapiens, UniProt P35222).
T2 construct: expressed in transfected cells; host or cells: HEK293
T2 sequence (P35222 1-781): T1 sequence (P35222 1-781)
The experiment in a line: Nano-BRET target engagement assay (B-cat-Halo & TCF4-Luc in HEK293 cells). The following applies: read-out: NanoBRET Abs IC50. It counts as cell-based. A general note: In BRET a luciferase serves as donor, and the signal depends on an acceptor being close.

≈ marks a conversion by molar mass, not a printed value. Read-outs that look alike come from different tables or passages of the source.

For orientation: IC50 means the point on the concentration scale where inhibition reaches its midpoint. A word on the chromatographic logD: it is lipophilicity estimated from chromatographic retention. As a reminder, the Solubility is the concentration that dissolves in the medium under given conditions. A low value points to little dissolved substance. On to `CC(=O)N1CCC[C@]12CC=CCCCC1(CCCC=CCCCOC(=O)N3CC[C@@](C(=O)N[C@@H](Cc4ccsc4)C(=O)N[C@@H](Cc4csc5ccccc45)C(=O)N[C@@H](CCC(N)=O)C(N)=O)(C3)NC(=O)[C@H](CC(N)=O)NC(=O)[C@H](Cc3ccccc3)NC(=O)[C@H](CCCCNC(=O)c3ccc(CN4CCOCC4)cc3)NC(=O)[C@H](C)NC(=O)[C@H](CC(=O)O)NC(=O)[C@H](CC(=O)O)NC1=O)NC(=O)[C@H](CC(C)(C)C)NC(=O)[C@H](CC(=O)O)NC2=O` (stereo partly drawn) [I-890, Ac-PL3-Asp-Npg-B5-Asp-Asp-Ala-[MeMorphBz]Lys-Phe-Asn-PyrS2-3Thi-BztA-Gln-NH2], for which the values for the IC50 in data set [1] and in data set [2] were 16 nM and > 20000 nM, respectively. Also, the chromatographic logD in the data set “CHI Log D procedure” (pH 7.4, CHI Log D) is 1.67. Moreover, the Solubility in the data set “Solubility in PBS” (Solubility (uM)) came out at 40 µM (≈ 87.1 µg/mL).
The corresponding values for `COCCOCCOCCOCCOCCOCCC(=O)NCCCC[C@@H]1NC(=O)[C@H](C)NC(=O)[C@H](CC(=O)O)NC(=O)[C@H](CC(=O)O)NC(=O)C2(CCCC=CCCCOC(=O)N3CC[C@@](C(=O)N[C@@H](Cc4ccsc4)C(=O)N[C@@H](Cc4csc5ccccc45)C(=O)N[C@@H](CCC(N)=O)C(N)=O)(C3)NC(=O)[C@H](CC(N)=O)NC(=O)[C@H](Cc3ccccc3)NC1=O)CCCC=CC[C@]1(CCCN1C(C)=O)C(=O)N[C@@H](CC(=O)O)C(=O)N[C@@H](CC(C)(C)C)C(=O)N2` (stereo partly drawn) [I-895, Ac-PL3-Asp-Npg-B5-Asp-Asp-Ala-[mPEG6]Lys-Phe-Asn-PyrS2-3Thi-BztA-Gln-NH2] are 14 nM, > 20000 nM, 1.45 and 31 µM (≈ 70.7 µg/mL).
As usually defined, the solubility is the dissolved amount per volume that the medium holds. A high value points to a readily soluble substance. For the compound `COCCOCCOCCOCCOCCOCCOCCOCCC(=O)NCCCC[C@@H]1NC(=O)[C@H](C)NC(=O)[C@H](CC(=O)O)NC(=O)[C@H](CC(=O)O)NC(=O)C2(CCCC=CCCCOC(=O)N3CC[C@@](C(=O)N[C@@H](Cc4ccsc4)C(=O)N[C@@H](Cc4csc5ccccc45)C(=O)N[C@@H](CCC(N)=O)C(N)=O)(C3)NC(=O)[C@H](CC(N)=O)NC(=O)[C@H](Cc3ccccc3)NC1=O)CCCC=CC[C@]1(CCCN1C(C)=O)C(=O)N[C@@H](CC(=O)O)C(=O)N[C@@H](CC(C)(C)C)C(=O)N2` (stereo partly drawn) [I-896, Ac-PL3-Asp-Npg-B5-Asp-Asp-Ala-[mPEG8]Lys-Phe-Asn-PyrS2-3Thi-BztA-Gln-NH2], the IC50 is 22 nM in data set [1] and > 20000 nM in data set [2]. This compound displayed a chromatographic logD in “CHI Log D procedure” (pH 7.4, CHI Log D) of 1.45. The compound further returned a solubility at 15 min in the data set “Solubility in PBS” (Solubility (uM)) of 30 µM (≈ 71.1 µg/mL).
Regarding `CCCC(=O)NCCCC[C@@H]1NC(=O)[C@H](C)NC(=O)[C@H](CC(=O)O)NC(=O)[C@H](CC(=O)O)NC(=O)C2(CCCC=CCCCOC(=O)N3CC[C@@](C(=O)N[C@@H](Cc4ccsc4)C(=O)N[C@@H](Cc4csc5ccccc45)C(=O)N[C@@H](CCC(N)=O)C(N)=O)(C3)NC(=O)[C@H](CC(N)=O)NC(=O)[C@H](Cc3ccccc3)NC1=O)CCCC=CC[C@]1(CCCN1C(C)=O)C(=O)N[C@@H](CC(=O)O)C(=O)N[C@@H](CC(C)(C)C)C(=O)N2` (stereo partly drawn) [I-897, Ac-PL3-Asp-Npg-B5-Asp-Asp-Ala-[Bua]Lys-Phe-Asn-PyrS2-3Thi-BztA-Gln-NH2], the IC50 in data set [1] is 16 nM; in data set [2] it was > 20000 nM. For the same compound, the chromatographic logD in “CHI Log D procedure” (pH 7.4, CHI Log D) turned out to be 1.65. The Solubility in “Solubility in PBS” (Solubility (uM)) was found to be 43 µM (≈ 88 µg/mL).
`CCCCCCCC(=O)NCCCC[C@@H]1NC(=O)[C@H](C)NC(=O)[C@H](CC(=O)O)NC(=O)[C@H](CC(=O)O)NC(=O)C2(CCCC=CCCCOC(=O)N3CC[C@@](C(=O)N[C@@H](Cc4ccsc4)C(=O)N[C@@H](Cc4csc5ccccc45)C(=O)N[C@@H](CCC(N)=O)C(N)=O)(C3)NC(=O)[C@H](CC(N)=O)NC(=O)[C@H](Cc3ccccc3)NC1=O)CCCC=CC[C@]1(CCCN1C(C)=O)C(=O)N[C@@H](CC(=O)O)C(=O)N[C@@H](CC(C)(C)C)C(=O)N2` (stereo partly drawn) [I-898, Ac-PL3-Asp-Npg-B5-Asp-Asp-Ala-[Oct]Lys-Phe-Asn-PyrS2-3Thi-BztA-Gln-NH2]: the IC50 in data set [1] is 16 nM; in data set [2], > 20000 nM. Also, the chromatographic logD in “CHI Log D procedure” (pH 7.4, CHI Log D) is 2.2. Also, the concentration in solution in the data set “Solubility in PBS” (Solubility (uM)) (Solubility) was 42 µM (≈ 88.3 µg/mL).
On to `CC(=O)N1CCC[C@]12CC=CCCCC1(CCCC=CCCCOC(=O)N3CC[C@@](C(=O)N[C@@H](Cc4ccsc4)C(=O)N[C@@H](Cc4csc5ccccc45)C(=O)N[C@@H](CCC(N)=O)C(N)=O)(C3)NC(=O)[C@H](CC(N)=O)NC(=O)[C@H](Cc3ccccc3)NC(=O)[C@H](CCCCNC(=O)C34CC5CC(CC(C5)C3)C4)NC(=O)[C@H](C)NC(=O)[C@H](CC(=O)O)NC(=O)[C@H](CC(=O)O)NC1=O)NC(=O)[C@H](CC(C)(C)C)NC(=O)[C@H](CC(=O)O)NC2=O` (stereo partly drawn) [I-899, Ac-PL3-Asp-Npg-B5-Asp-Asp-Ala-[AdamantC]Lys-Phe-Asn-PyrS2-3Thi-BztA-Gln-NH2], for which the 50% inhibitory concentration (IC50) is 28 nM in data set [1] and > 20000 nM in data set [2]. The same compound registered a chromatographic logD in the data set “CHI Log D procedure” (pH 7.4, CHI Log D) of 2.26. In addition, the Solubility in the data set “Solubility in PBS” (Solubility (uM)) amounted to 40 µM (≈ 85.5 µg/mL).
Regarding `CC(=O)N1CCC[C@]12CC=CCCCC1(CCCC=CCCCOC(=O)N3CC[C@@](C(=O)N[C@@H](Cc4ccsc4)C(=O)N[C@@H](Cc4csc5ccccc45)C(=O)N[C@@H](CCC(N)=O)C(N)=O)(C3)NC(=O)[C@H](CC(N)=O)NC(=O)[C@H](Cc3ccccc3)NC(=O)[C@H](CCCCNC(=O)C34CC5(C)CC(C)(CC(C)(C5)C3)C4)NC(=O)[C@H](C)NC(=O)[C@H](CC(=O)O)NC(=O)[C@H](CC(=O)O)NC1=O)NC(=O)[C@H](CC(C)(C)C)NC(=O)[C@H](CC(=O)O)NC2=O` (stereo partly drawn) [I-900, Ac-PL3-Asp-Npg-B5-Asp-Asp-Ala-[Me3AdamantC]Lys-Phe-Asn-PyrS2-3Thi-BztA-Gln-NH2], the IC50 in data set [1] is 33 nM; in data set [2], > 20000 nM. Moreover, the chromatographic logD in the data set “CHI Log D procedure” (pH 7.4, CHI Log D) came to 2.74. The same compound came in with a Solubility in the data set “Solubility in PBS” (Solubility (uM)) of 41 µM (≈ 89.4 µg/mL).
The like results for `CC(=O)N1CCC[C@]12CC=CCCCC1(CCCC=CCCCOC(=O)N3CC[C@@](C(=O)N[C@@H](Cc4ccsc4)C(=O)N[C@@H](Cc4csc5ccccc45)C(=O)N[C@@H](CCC(N)=O)C(=O)N[C@@H](CCCCNC(=O)CCc4cccc5ccccc45)C(N)=O)(C3)NC(=O)[C@H](CC(N)=O)NC(=O)[C@H](Cc3ccccc3)NC(=O)[C@H](C)NC(=O)[C@H](C)NC(=O)[C@H](CC(=O)O)NC(=O)[C@H](CC(=O)O)NC1=O)NC(=O)[C@H](CC(C)(C)C)NC(=O)[C@H](CC(=O)O)NC2=O` (stereo partly drawn) [I-903, Ac-PL3-Asp-Npg-B5-Asp-Asp-Ala-Ala-Phe-Asn-PyrS2-3Thi-BztA-Gln-[1NapPr]Lys-NH2] were, in that order, 33 nM, 7800 nM, 2.38 and 43 µM (≈ 95.8 µg/mL).
`CC(=O)N1CCC[C@]12CC=CCCCC1(CCCC=CCCCOC(=O)N3CC[C@@](C(=O)N[C@@H](Cc4ccsc4)C(=O)N[C@@H](Cc4csc5ccccc45)C(=O)N[C@@H](CCC(N)=O)C(=O)N[C@@H](CCCCNC(=O)C(C)(c4ccccc4)c4ccccc4)C(N)=O)(C3)NC(=O)[C@H](CC(N)=O)NC(=O)[C@H](Cc3ccccc3)NC(=O)[C@H](C)NC(=O)[C@H](C)NC(=O)[C@H](CC(=O)O)NC(=O)[C@H](CC(=O)O)NC1=O)NC(=O)[C@H](CC(C)(C)C)NC(=O)[C@H](CC(=O)O)NC2=O` (stereo partly drawn) [I-904, Ac-PL3-Asp-Npg-B5-Asp-Asp-Ala-Ala-Phe-Asn-PyrS2-3Thi-BztA-Gln-[22PhPr]Lys-NH2]: the IC50 in data set [1] came to 54 nM; in data set [2] it was 20000 nM. Further, the chromatographic logD in the data set “CHI Log D procedure” (pH 7.4) is 2.65. Besides, the Solubility in “Solubility in PBS” amounted to 30 µM (≈ 67.6 µg/mL).
